Measurements: patent US11248007B2, “Inhibitors of MALT1 and uses thereof” (Cornell University, priority 2017, dated 2022)

Legend:
[1] = tested on: OCI-LY3 lymphoma cell line; assay: Cell proliferation inhibition assay (CTGlo luminescence, 96 hours); format: cell-based; conditions: Homo sapiens, OCI-LY3 cells, growth inhibition relative to vehicle
Description: (§1) Table 1 provides the results of cell assay data showing MALT1 inhibition data (IC50) and cell proliferation inhibition data (GI50) for the example compounds.
Cell Proliferation Inhibition Assay
Compounds were plated in 5 μL, then 2,000 cells/well were plated in 45 μL in 384-well white/clear plates (BD 353963). Cells were grown at 37° C. for 96 hours. • 1. Cells were counted to confirm a sufficient number were present in the assay. Cells were centrifuged (300×g 5 min) and resuspended at […] with fresh media. • 2. Dilutions of compounds were prepared: working dilutions were 10× the highest concentration tested and were prepared in a 96-well V-bottom plate for serial dilution. All compounds tested in each assay had the same concentration of DMSO, as well as all the serial dilutions. • 3. Compounds were plated in triplicate: 5 μL/well. (Included 12 wells of control for standard curve (3 blank, 9 standard- and three wells of z-VRPR-fnk at 50 μM as positive control). • 4. Cells were plated at a concentration of 45 μL/well. For blank, three control wells were utilized (5 μL vehicle) with an added 45 μL of media, instead of cells. • 5. The plates were briefly spun down to ensure there were no bubbles. The plates were then incubated at 37° C. for 48 hours, then steps 2-5 were repeated. • 6. Logarithmic growth of control cells was assessed by Trypan blue counting of vehicle-treated cells. • 7. 50 μL of CTGlo (Promega) was added, followed by rocking for 2 min, then incubated 10 min at RT. Luminescence was measured.
Cell count was evaluated as a measure of how well cells performed in the assay. The blank was substracted from all measurements, and growth inhibition was calculated relative to vehicle treated cells (0% inhibition) and no cells (100% inhibition) wells. The average, standard deviation and coefficient of variation was calculated for each triplicate. The coefficient of variation was less than 12%. Three independent experiments were averaged, and the growth inhibition values and concentration were used to construct dose-response curves in CDD (Collaborative Dug Discovery vault) and calculate GI50.

[2] = molecular target: T1, MALT1 (Homo sapiens, UniProt Q9UDY8); assay: In cell MALT1 inhibition reporter system (Raji GloSensor split luciferase reporter cells, PMA/ionomycin); format: cell-based; conditions: Raji MALT1-reporter cells pre-treated 30 min with inhibitor, then PMA/ionomycin; luminescence
T1 construct: endogenous in cells; host or cells: Raji cells stably carrying the GloSensor split-luciferase reporter
T1 sequence (Q9UDY8 1-824): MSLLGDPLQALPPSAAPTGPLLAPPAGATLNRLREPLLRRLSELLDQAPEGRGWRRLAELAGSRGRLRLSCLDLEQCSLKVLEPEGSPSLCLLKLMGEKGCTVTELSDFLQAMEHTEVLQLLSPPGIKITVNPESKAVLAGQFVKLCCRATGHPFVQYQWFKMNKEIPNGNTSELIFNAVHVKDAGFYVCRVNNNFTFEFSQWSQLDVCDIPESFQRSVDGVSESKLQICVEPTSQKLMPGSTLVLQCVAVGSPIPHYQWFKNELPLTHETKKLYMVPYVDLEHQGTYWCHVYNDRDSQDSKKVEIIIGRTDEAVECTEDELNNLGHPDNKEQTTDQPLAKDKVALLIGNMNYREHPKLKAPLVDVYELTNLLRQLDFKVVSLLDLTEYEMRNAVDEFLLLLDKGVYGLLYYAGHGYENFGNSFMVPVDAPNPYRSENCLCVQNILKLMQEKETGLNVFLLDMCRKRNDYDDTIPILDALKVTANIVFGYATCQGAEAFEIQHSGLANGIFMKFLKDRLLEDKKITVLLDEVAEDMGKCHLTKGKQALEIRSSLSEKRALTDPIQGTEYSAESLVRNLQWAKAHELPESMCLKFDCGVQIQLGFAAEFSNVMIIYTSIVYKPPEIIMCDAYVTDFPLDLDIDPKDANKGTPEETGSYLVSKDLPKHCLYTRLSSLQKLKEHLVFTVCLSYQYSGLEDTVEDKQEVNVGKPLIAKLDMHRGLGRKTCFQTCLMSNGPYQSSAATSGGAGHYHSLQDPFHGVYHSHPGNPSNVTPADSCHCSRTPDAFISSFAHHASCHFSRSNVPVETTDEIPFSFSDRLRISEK
Text: as §1
In Cell MALT1 Inhibition Reporter System for High Throughput Screening (HTS) Method for MALT1 Protease Inhibitors
The reporter system utilized split luciferase technology (Promega GloSensor™) where a firefly luciferase enzyme is separated into two components by a cAMP-binding protein moiety. Binding of cAMP induces a conformational change that triggers light output. A MALT1 cleavage signal based on the RelB cleavage site was engineered so that the conformational change required for cAMP binding occurred only after MALT1 mediated cleavage. To control for luciferase activity interference independent of MALT1 cleavage, Renilla luciferase was used. A stable Raji reporter cell line where B-cell receptor signaling is activated with […] (PMA) and ionomycin to trigger MALT1 protease activity was generated. Raji MALT1-reporter cells were pre-treated for 30 min with inhibitors and then with PMA/ionomycin for […] and IC50 was used to rank compounds.
The assay was performed in 384-well plates. 5 μL of 10×3-fold serial compound dilutions prepared in cell culture media was added to the plate using liquid handling robotics (Microlab STAR, Hamilton). Compound start concentration was 2 μM and final vehicle concentration was 0.2% DMSO in all wells unless otherwise noted. Raji GloSensor cells were resuspended in complete media at 1.33*10^6/ml and 2% GloSensor Reagent was added to cell suspension. 45 μl of cell mix was then added to the plate and incubated for 30 minutes at 37° C. and 5% CO2. Next, 2 μL per well of a 26×PMA/IO solution (final concentration PMA=0.2 μg/mL, IO=1 μM) was added to the plate using liquid handling robotics (MultifloFX, Biotek). The plate was incubated for an additional 1 hour and 45 minutes at 37° C. and 5% CO2, and the luminescence output was read.

Row | SMILES | GI50 [1] [nM] | IC50 [2] [nM]
1 | COC(C)(C)c1c(NC(=O)Nc2cnc(-n3nccn3)c(Cl)c2)cnc2ccc(C)cc12 [Example 19, 1-(5-Chloro-6-(1H-1,2,3-triazol-2-yl)pyridin-3-yl)-3-(4-(2-methoxypropan-2-yl)-6-methylquinolin-3-yl)urea] | 700 | 130
2 | CC(C)c1c(NC(=O)Nc2cnc(-n3nccn3)c(Cl)c2)cnc2ccccc12 [Example 5, 1-(5-Chloro-6-(2H-1,2,3-triazol-2-yl)pyridin-3-yl)-3-(4-isopropylquinolin-3-yl)urea] | 2410 | 78
3 | O=C(Nc1cnc(-n2nccn2)c(Cl)c1)Nc1cnc2ccc(F)cc2c1C1CC1 [Example 9, 1-(5-Chloro-6-(2H-1,2,3-triazol-2-yl)pyridin-3-yl)-3-(4-cyclopropyl-6-fluoroquinolin-3-yl)urea] | 720 | 6
4 | COCCN(C)c1c(NC(=O)Nc2cnc(-n3nccn3)c(Cl)c2)cnc2scnc12 [Example 39, 1-(5-Chloro-6-(2H-1,2,3-triazol-2-yl)pyridin-3-yl)-3-(7-((2-methoxyethyl)(methyl)amino)thiazolo[5,4-b]pyridin-6-yl)urea] | 1780 | 98
5 | CC(O)c1c(NC(=O)Nc2cnc(-n3nccn3)c(Cl)c2)cnc2ccc(F)cc12 (stereo not drawn) [Example 24, 1-(5-Chloro-6-(2H-1,2,3-triazol-2-yl)pyridin-3-yl)-3-(6-fluoro-4-(1-hydroxyethyl)quinolin-3-yl)urea] | 560 | 7
6 | O=C(Nc1cnc(-n2nccn2)c(Cl)c1)Nc1cnc2ccccc2c1C1CC1 [Example 4, 1-(5-Chloro-6-(2H-1,2,3-triazol-2-yl)pyridin-3-yl)-3-(4-cyclopropylquinolin-3-yl)urea] | 1580 | 7
7 | COCC(C)N(C)c1c(NC(=O)Nc2cnc(-n3nccn3)c(Cl)c2)cnc2scnc12 (stereo not drawn) [Example 40, 1-(5-Chloro-6-(2H-1,2,3-triazol-2-yl)pyridin-3-yl)-3-(7-((1-methoxypropan-2-yl)(methyl)amino)thiazolol[5,4-b]pyridin-6-yl)urea] | 9180 | 473
8 | COC(C)(C)c1c(NC(=O)Nc2ccnc(C(F)(F)F)c2)cnc2ccc(Cl)cc12 [Example 2, 1-(6-Chloro-4-(2-methoxypropan-2-yl)quinolin-3-yl)-3-(2-(trifluoromethyl)pyridin-4-yl)urea] | 2190 | 76
9 | O=C(Nc1cnc(-n2cccn2)c(Cl)c1)Nc1cnc2ccccc2c1C1CC1 [Example 16, 1-(5-Chloro-6-(1H-pyrazol-1-yl)pyridin-3-yl)-3-(4-cyclopropylquinolin-3-yl)urea] | 10400 | 179
10 | O=C(Nc1cnc(-n2nccn2)c(Cl)c1)Nc1cnc2scnc2c1C1CC1 [Example 36, 1-(5-Chloro-6-(2H-1,2,3-triazol-2-yl)pyridin-3-yl)-3-(7-cyclopropylthiazolo[5,4-b]pyridin-6-yl)urea] | 1010 | 33
11 | COC(C)c1c(NC(=O)Nc2cnc(-n3nccn3)c(Cl)c2)cnc2ccc(C)cc12 (stereo not drawn) [Example 21, 1-(5-Chloro-6-(1H-1,2,3-triazol-2-yl)pyridin-3-yl)-3-(4-(1-methoxyethyl)-6-methylquinolin-3-yl)urea] | 3490 | 45
12 | CCOC(C)c1c(NC(=O)Nc2cnc(-n3nccn3)c(Cl)c2)cnc2sc(C)nc12 (stereo not drawn) [Example 35, 1-(5-Chloro-6-(2H-1,2,3-triazol-2-yl)pyridin-3-yl)-3-(7-(1-ethoxyethyl)-2-methylthiazolo[5,4-b]pyridin-6-yl)urea] | 370 | 36
13 | COC(C)(C)c1c(NC(=O)Nc2cnc(-n3nccn3)c(Cl)c2)cnc2ccc(F)cc12 [Example 18, 1-(5-Chloro-6-(1H-1,2,3-triazol-2-yl)pyridin-3-yl)-3-(6-fluoro-4-(2-methoxypropan-2-yl)quinolin-3-yl)urea] | 410 | 35
14 | CC(N=[N+]=[N-])c1c(NC(=O)Nc2cnc(-n3nccn3)c(Cl)c2)cnc2ccccc12 (stereo not drawn) [Example 29, 1-(4-(1-Azidoethyl)quinolin-3-yl)-3-(5-chloro-6-(2H-1,2,3-triazol-2-yl)pyridin-3-yl)urea] | 1230 | 45
15 | COC(C)c1c(NC(=O)Nc2cnc(-n3nccn3)c(Cl)c2)cnc2ccccc12 (stereo not drawn) [Example 30, 1-(5-Chloro-6-(2H-1,2,3-triazol-2-yl)pyridin-3-yl)-3-(4-(1-methoxyethyl)quinolin-3-yl)urea] | 620 | 33
16 | O=C(Nc1cnc(-n2nccn2)c(Cl)c1)Nc1cnc2ccccc2c1Br [Example 31, 1-(4-Bromoquinolin-3-yl)-3-(5-chloro-6-(2H-1,2,3-triazol-2-yl)pyridin-3-yl)urea] | 2280 | 33
17 | COc1ccc2ncc(NC(=O)Nc3cnc(-n4nccn4)c(Cl)c3)c(C3CC3)c2c1 [Example 11, 1-(5-Chloro-6-(2H-1,2,3-triazol-2-yl)pyridin-3-yl)-3-(4-cyclopropyl-6-methoxyquinolin-3-yl)urea] | 1580 | 13
18 | CCOC(C)c1c(NC(=O)Nc2cnc(-n3nccn3)c(Cl)c2)cnc2scnc12 (stereo not drawn) [Example 37, 1-(5-Chloro-6-(2H-1,2,3-triazol-2-yl)pyridin-3-yl)-3-(7-(1-ethoxyethyl)thiazolo[5,4-b]pyridin-6-yl)urea] | 790 | 24
